In patent publication US11358931B2, “Selective androgen receptor modulators (SARMs) and uses thereof” (priority 2007, dated 2022):

How the values were obtained:
[1] = tested on: orchidectomized male Sprague-Dawley rat; assay: In vivo assay, orchidectomized mature male rats (14 days oral); conditions: for exposure (AUC24) at which muscle mass is stimulated above sham equivalent levels: ORX male rats, 14 days PO
Text: The orchidectomized male Sprague-Dawley rat model was used to assess the effects of Compound 102 on various reproductive, gonadotropin and musculoskeletal endpoints, including sex accessory organs, bone, serum gonadotropin levels and striated muscle in mature male rats.
In this assay, two-month old rats were acclimated in a vivarium for one week. After this acclimation period, rats were surgically orchidectomized under isoflurane anesthesia and left untreated for 14 days. After 14 days, animals were sorted into groups such that no statistically significant differences in mean body weights were observed. Rats began receiving treatment 14 days after the day of surgery. Sham-operated and orchidectomized rats, treated with vehicle, served as controls. The different test groups were treated with various doses of Compound 102 (0.03 to 100 mg/kg/day per os (by mouth)). Dosages included 0.03, 0.1, 0.3, 1, 3, 10, 30 and 100 mg/kg/day. Ostarine, a non-steroidal androgenic drug (Evans et al., J Clin Oncology 25: 9119 (2007)) was dosed at dosages similar to other test groups as a comparison. After the 14th dose, venous blood was collected at 0, 1, 2, 4 and 6 hours after dosing. The blood samples were collected in EDTA-containing tubes (Becton Dickinson, Franklin Lakes, N.J.). Approximately 24 hours after the last dose, animals were euthanized and seminal vesicle weights, ventral prostate weights, levator ani weights, preputial gland weights and blood samples were collected on necropsy.
For serum, whole blood (5 mL) was collected in vacutainer tubes (Becton Dickinson) and the blood samples were allowed to clot at room temperature for about 2 hours. Serum was separated by centrifugation at 2500 rpm for 30 minutes, collected and frozen (−80° C.). For plasma, whole blood was collected in EDTA-containing tubes by centrifugation at 1000×g for 5 minutes at 4° C. Plasma samples were stored at −20° C.
For the preparation of all dose formulations, the appropriate amount of test compound (Compound 102) for the highest concentration to be administered was weighed. The compound was suspended in the formulation vehicle (5% Tween®-80 polysorbate, 90% PEG-400 polyethylene glycol and 5% PVP-K30 polyvinylpyrrolidone). The suspension was sonicated for 15 minutes, and the resulting formulation was diluted using vehicle to obtain the proper volume and concentrations of the dosing materials to achieve a dosing volume of 1 mL/kg body weight.
Serum samples were assayed with a double anti-serum procedure using reagents from the National Institute of Diabetes and Digestive and Kidney Diseases (NIDDK). Sample compounds and standards (NIDDK-rLH-RP-3) in a total volume of 200 μL were incubated at room temperature for 2 to 3 days with 100 μL primary anti-serum (rat LH antiserum: rabbit NIDDK-anti-rLH-S-11) diluted 1:100,000. Then, 100 μL of ^125I-labeled LH (Covance Laboratories Madison, Wis.) diluted 200,000-300,000 cpm/mL was added to the tubes and incubation continued for an additional 24 hour period.
Bound hormone was separated from free hormone by precipitation with a specific goat ant-rabbit serum (GARS from Antibodies, Inc., Davis, Calif.). An aliquot of 50 μL of 4% normal rabbit serum was added to each incubation tube, after which an additional 50 μL of a 1:10 GARS solution was added. The tubes were vortexed and incubated overnight at 4° C.
The assay was terminated by centrifugation at 2,500 rpm for 30 minutes in a Sorvall RC 3C Plus centrifuge (rotor #H2000B) at 4° C. The supernatants were decanted and discarded and the pellets were counted in a 10-channel gamma-counter.
Serum osteocalcin, a vitamin K-dependent, calcium binding protein, is a biochemical marker that reflects bone formation activity (Gundberg, J Clin Ligand Assay 21: 128-138 (1998)). Serum osteocalcin was quantitated using an IRMA kit from Immutopics, Inc. (#50-1500, San Clemente, Calif.). […] The test uses two different antibodies to measure the serum osteocalcin. […]

[2] = biological target: T1, baculovirus expressed hAR protein (Homo sapiens, UniProt P10275); assay: Receptor binding assay ([3H]-dihydrotestosterone displacement)
T1 construct: made in house; host or cells: Sf-21 insect cells (baculovirus)
T1 sequence (P10275 1-920): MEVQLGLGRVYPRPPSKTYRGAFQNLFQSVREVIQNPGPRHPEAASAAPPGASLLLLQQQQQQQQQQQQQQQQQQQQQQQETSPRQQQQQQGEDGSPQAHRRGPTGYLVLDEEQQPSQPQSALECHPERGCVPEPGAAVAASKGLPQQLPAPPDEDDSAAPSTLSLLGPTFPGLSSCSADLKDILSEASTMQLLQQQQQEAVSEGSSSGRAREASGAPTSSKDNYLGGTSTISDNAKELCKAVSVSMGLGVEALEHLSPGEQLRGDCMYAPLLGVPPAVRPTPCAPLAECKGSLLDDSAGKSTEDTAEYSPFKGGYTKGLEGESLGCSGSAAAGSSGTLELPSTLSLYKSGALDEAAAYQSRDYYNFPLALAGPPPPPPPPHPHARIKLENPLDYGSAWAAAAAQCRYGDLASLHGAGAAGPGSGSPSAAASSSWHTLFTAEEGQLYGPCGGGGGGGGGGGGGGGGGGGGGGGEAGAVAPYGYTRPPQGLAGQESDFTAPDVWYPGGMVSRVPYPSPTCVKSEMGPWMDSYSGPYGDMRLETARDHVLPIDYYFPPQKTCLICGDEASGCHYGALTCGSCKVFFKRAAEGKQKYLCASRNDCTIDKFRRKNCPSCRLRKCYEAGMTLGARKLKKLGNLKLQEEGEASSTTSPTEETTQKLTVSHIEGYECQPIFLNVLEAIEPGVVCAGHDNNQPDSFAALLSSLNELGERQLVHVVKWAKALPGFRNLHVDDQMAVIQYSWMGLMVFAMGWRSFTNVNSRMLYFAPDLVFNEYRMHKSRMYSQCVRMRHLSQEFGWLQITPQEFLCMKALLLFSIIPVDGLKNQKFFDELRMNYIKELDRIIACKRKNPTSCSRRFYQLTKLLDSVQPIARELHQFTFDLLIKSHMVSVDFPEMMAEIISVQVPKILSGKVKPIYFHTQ

Row | SMILES | preputial gland weight ([1]; 30 mg/kg/day, statistically significant) | ventral prostate or seminal vesicles, % of sham levels ([1]; 100 mg/kg/day PO (highest dose)) | exposure (AUC24) at which muscle mass is stimulated above sham equivalent levels [1] | preputial gland weight ([1]; all doses less than 10 mg/kg/day PO) | ventral prostate, % of sham equivalent levels ([1]; exposures of 1 μg·/mL or greater) | Ki [2] [nM] | restoration of ventral prostate to sham equivalents ([1]; any dose)
1 | N#Cc1ccc(N2CCC[C@@H]2[C@@H](O)C(F)(F)F)cc1C(F)(F)F [Compound 102, R,R-4-(2-(1-Hydroxyl-2,2,2-trifluoroethyl)-pyrrolidinyl)-2-trifluoromethyl-benzonitrile] | increased preputial gland weight above the sham level | approximately 50% | ≥ 1 µg·h/mL | remained below vehicle equivalent levels | less than 50% | 0.9 | 
2 | C[C@](O)(COc1ccc(C#N)cc1)C(=O)Nc1ccc(C#N)c(C(F)(F)F)c1 [ostarine] |  |  | greater than 10 μg·/mL |  |  |  | did not restore ventral prostate to sham equivalents at any dose
3 | O=[N+]([O-])c1ccc(N2CCC[C@@H]2[C@@H](O)C(F)(F)F)cc1C(F)(F)F [LG0893410, R,R-2,2,2-trifluoro-1-[1-(4-nitro-3-trifluoromethyl-phenyl)-pyrrolidin-2-yl]-ethanol] |  |  |  |  |  | 2.5 | 
4 | O=[N+]([O-])c1ccc(N2CCC[C@@H]2[C@H](O)C(F)(F)F)cc1C(F)(F)F [LG0893411, S, R-2,2,2-trifluoro-1-[1-(4-nitro-3-trifluoromethyl-phenyl)-pyrrolidin-2-yl]-ethanol] |  |  |  |  |  | 5.7 | 
